Series [1] has as its target T1, human adrenomedullin-receptor (Homo sapiens, UniProt O60895+Q16602).
T1 construct: expressed in transfected cells; host or cells: CHO (Chinese hamster ovary) recombinant reporter cell line with aequorin
Briefly: Tests on a recombinant adrenomedullin-receptor reporter cell (CHO, aequorin luminescence). In kind it is cell-based. Conditions: Table 1, CHO cell line carrying the human adrenomedullin-receptor. The protocol:
Activation of the receptor by ligands was measured by aequorin luminescence. Construction of the cell line and measurement procedure has been described in detail [Wunder F., Rebmann A., Geerts A, and Kalthof B., Mol Pharmacol, 73, 1235-1243 (2008)]. In brief: Cells were seeded on opaque 384-well microtiter plates at a density of 4000 cells/well and were grown for 24 h. After removal of culture medium, cells were loaded for 3 h with 0.6 μg/ml coelenterazine in Ca^2+-free Tyrode solution (130 mM sodium chloride, 5 mM potassium chloride, 20 mM HEPES (4-(2-hydroxyethyl)-1-piperazineethanesulfonic acid), 1 mM magnesium chloride, and 4.8 mM sodium hydrogen carbonate, pH 7.4) supplemented with 0.2 mM 3-Isobutyl-1-methylxanthine (IBMX) in a cell culture incubator. Examples were added for 6 min in calcium^2+-free Tyrode solution containing 0.1% bovine serum albumin. Immediately before adding calcium^2+ to a final concentration of 3 mM measurement of the aequorin luminescence was started by use of a suitable luminometer. Luminescence was measured for 60 s. In a typical experiment compounds were tested in a concentration range of 1×10^−13 to 3×10^−6 M.

Series [2] has as its target T2, CLR fused to EYFP and RAMP2 fused to ECFP (Homo sapiens, UniProt O60895+Q16602).
T2 construct: EYFP; ECFP; expressed in transfected cells; host or cells: HEK-293 cells, transient co-transfection
Briefly: cAMP assay (CRE luciferase reporter, HEK-293 cells transiently co-transfected with CLR and RAMP2). In kind it is cell-based. Conditions: Table 2, cAMP assay; HEK-293, CLR/RAMP2, CRE luciferase, 3 h stimulation, normalized to [G^14]ADM(14-52). In short, it runs like this: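 HEK-293 cells transiently co-transfected with CLR-EYFP, RAMP2-ECFP and a CRE-luc2P luciferase reporter were stimulated with ligands (eight concentrations, triplicate) for 3 h at 37 °C. Luminescence was corrected to 5 µM forskolin, normalized to [G^14]ADM(14-52) standard, and fitted by non-linear regression to dose-response curves.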
(cAMP levels reflect the balance of adenylyl cyclase and phosphodiesterase activity.)

Series [3] can be described thus: Stability in human blood plasma (TAM-labeled analogues). In kind it is in vitro ADME. The note with it: 10E-5 M, 37° C., two phase decay, N-terminally TAM-labeled analogues, read-out: HalfLife (Slow) (converted). The text has this: FIG. 3: Stability of peptides in plasma calculated with GraphPad Prism 5 (GraphPad Software) using two phase decay analysis for the determination of half-life (slow) (Test 1e). N-terminally 6-carboxytetramethylrhodamine-(TAM)-labeled analogues of Control: TAM[G^14]ADM(14-52); Example 18: TAM[K^14(PAM), (Dpr^16, E^21)lac]ADM(14-52); and Example 27: TAM[K^14(PAM), (Dpr^16, E^21)lac, Nα-Me-K^46]ADM(14-52).
The stability of the peptides was investigated using N-terminally 6-carboxytetramethylrhodamine-(TAM)-labeled analogues.
Fluorescently labeled ADM analogues were prepared by using solid phase peptide synthesis (SPPS) as described before (general method for peptide synthesis). Manual coupling of 6-carboxytetramethylrhodamine (TAM) to the N-terminus of the peptides was carried out with a 3-fold molar excess of the fluorescence dye, 2-(1H-benzotriazol-1-yl)-1,1,3,3-tetramethyluronium hexafluorophosphate (HBTU) and N,N-Diisopropylethylamine (DIPEA) in DMF under constant shaking for 24 h the resin as described recently (Bohme D., Beck-Sickinger A. G. ChemMedChem 2015, 10: 804-14). The identity of the peptides was confirmed by mass spectrometry with an MALDI-MS (UltraflexIII, Bruker) and an ESI-MS (HCT, Bruker). The observed masses were in correspondence to the calculated masses.
The peptides were dissolved in 1.5 ml of human blood plasma to a concentration of 10E-5 M and incubated at 37° C. under constant shaking. […] The samples were analyzed by RP-HPLC using a Varian VariTide RPC column (particle size 6 μm; pore size 200 Å; 250×4.6 mm) with linear gradients of 0.1% TFA in water and 0.08% TFA in ACN; fluorescence emission was detected at λ=573 nm. The percentage of intact peptide was determined by peak integration. […] The stability of the peptides was calculated with GraphPad Prism 5 (GraphPad Software) using a two phase exponential decay function for the determination of slow-decay phase half-lives (ln(2)/Kslow; Kslow: rate constant of slow part of exponential decay) (Table 3 and FIG. 3).

Structures are written as SMILES. Bridge positions count the residues as written; N and C are the ends. Square brackets hold non-standard residues; d marks the D form. Peptide text beside a SMILES is read from it. * marks the point of attachment. X1 = CN(C)c1ccc2c(c1)Oc1cc(N(C)C)ccc1C21OC(=O)c2ccc(C(=O)*)cc21; Palmitoyl = CCCCCCCCCCCCCCCC(=O)*; NMeK = CN[C@@H](CCCCN)C(=O)O; Dap = NC[C@H](N)C(=O)O

T1 sequence (Q16602 23-461): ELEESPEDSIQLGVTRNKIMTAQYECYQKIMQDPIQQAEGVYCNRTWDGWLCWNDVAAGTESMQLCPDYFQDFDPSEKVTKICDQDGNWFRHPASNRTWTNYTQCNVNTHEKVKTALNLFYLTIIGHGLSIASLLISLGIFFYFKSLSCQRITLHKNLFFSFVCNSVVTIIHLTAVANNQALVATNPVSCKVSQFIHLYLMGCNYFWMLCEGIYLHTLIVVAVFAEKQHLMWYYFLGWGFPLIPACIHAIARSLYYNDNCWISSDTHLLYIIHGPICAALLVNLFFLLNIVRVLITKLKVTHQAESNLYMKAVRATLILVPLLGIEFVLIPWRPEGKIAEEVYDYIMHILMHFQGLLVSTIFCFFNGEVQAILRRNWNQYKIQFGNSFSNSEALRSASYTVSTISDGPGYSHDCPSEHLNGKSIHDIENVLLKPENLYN
T1 sequence (O60895 43-175): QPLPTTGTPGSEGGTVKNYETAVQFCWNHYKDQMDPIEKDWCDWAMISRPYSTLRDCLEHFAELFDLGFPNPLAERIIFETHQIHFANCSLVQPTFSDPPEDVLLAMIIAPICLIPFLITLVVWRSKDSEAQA
T2 sequence (Q16602 23-461): as the sequence (Q16602 23-461) above
T2 sequence (O60895 43-175): as the sequence (O60895 43-175) above

As usually defined, the EC50 is the midpoint of the concentration-response curve. On to `CC[C@H](C)[C@H](NC(=O)[C@H](CCC(N)=O)NC(=O)[C@H](Cc1c[nH]cn1)NC(=O)[C@H](C)NC(=O)[C@H](CC(C)C)NC(=O)[C@H](CCCCN)NC(=O)[C@H](CCC(N)=O)NC(=O)[C@@H](NC(=O)[C@@H](NC(=O)[C@@H]1CCCCNC(=O)C[C@H](NC(=O)CNC(=O)CN)C(=O)N[C@@H](CCCNC(=N)N)C(=O)N[C@@H](Cc2ccccc2)C(=O)NCC(=O)N[C@@H]([C@@H](C)O)C(=O)N1)[C@@H](C)O)C(C)C)C(=O)N[C@@H](Cc1ccc(O)cc1)C(=O)N[C@@H](CCC(N)=O)C(=O)N[C@@H](Cc1ccccc1)C(=O)N[C@H](C(=O)N[C@@H](CC(=O)O)C(=O)N[C@@H](CCCCN)C(=O)N[C@@H](CC(=O)O)C(=O)N[C@@H](CCCCN)C(=O)N[C@@H](CC(=O)O)C(=O)N[C@@H](CC(N)=O)C(=O)N[C@H](C(=O)N[C@@H](C)C(=O)N1CCC[C@H]1C(=O)N[C@@H](CCCNC(=N)N)C(=O)N[C@@H](CO)C(=O)N[C@@H](CCCCN)C(=O)N[C@H](C(=O)N[C@@H](CO)C(=O)N1CCC[C@H]1C(=O)N[C@@H](CCC(N)=O)C(=O)NCC(=O)N[C@@H](Cc1ccc(O)cc1)C(N)=O)[C@@H](C)CC)C(C)C)[C@@H](C)O` [Example 22, ((3S,9S,12S,15S,23S)-15-(2-(2-aminoacetamido)acetamido)-9-benzyl-12-(3-guanidinopropyl)-3-((R)-1-hydroxyethyl)-2,5,8,11,14,17-hexaoxo-1,4,7,10,13,18-hexaazacyclotricosane-23-carbonyl)-L-threonyl-ADM(22-52)] (H-GGDRFGTKTVQKLAHQIYQFTDKDKDNVAPRSKISPQGY-NH2; lactam 3-8), for which the EC50 came out at 15 nM in series [1] and 2.3 nM in series [2].

With `CC[C@H](C)[C@H](NC(=O)[C@H](CCC(N)=O)NC(=O)[C@H](Cc1c[nH]cn1)NC(=O)[C@H](C)NC(=O)[C@H](CC(C)C)NC(=O)[C@H](CCCCN)NC(=O)[C@H](CCC(N)=O)NC(=O)[C@@H](NC(=O)[C@@H](NC(=O)[C@@H]1CNC(=O)C[C@H](NC(=O)CNC(=O)CN)C(=O)N[C@@H](CCCNC(=N)N)C(=O)N[C@@H](Cc2ccccc2)C(=O)NCC(=O)N[C@@H]([C@@H](C)O)C(=O)N1)[C@@H](C)O)C(C)C)C(=O)N[C@@H](Cc1ccc(O)cc1)C(=O)N[C@@H](CCC(N)=O)C(=O)N[C@@H](Cc1ccccc1)C(=O)N[C@H](C(=O)N[C@@H](CC(=O)O)C(=O)N[C@@H](CCCCN)C(=O)N[C@@H](CC(=O)O)C(=O)N[C@@H](CCCCN)C(=O)N[C@@H](CC(=O)O)C(=O)N[C@@H](CC(N)=O)C(=O)N[C@H](C(=O)N[C@@H](C)C(=O)N1CCC[C@H]1C(=O)N[C@@H](CCCNC(=N)N)C(=O)N[C@@H](CO)C(=O)N[C@@H](CCCCN)C(=O)N[C@H](C(=O)N[C@@H](CO)C(=O)N1CCC[C@H]1C(=O)N[C@@H](CCC(N)=O)C(=O)NCC(=O)N[C@@H](Cc1ccc(O)cc1)C(N)=O)[C@@H](C)CC)C(C)C)[C@@H](C)O` [Example 26, ((3S,6S,12S,15S,18S)-18-(2-(2-aminoacetamido)acetamido)-12-benzyl-15-(3-guanidinopropyl)-6-((R)-1-hydroxyethyl)-5,8,11,14,17,20-hexaoxo-1,4,7,10,13,16-hexaazacycloicosane-3-carbonyl)-L-threonyl-ADM(22-52)] (H-GGDRFGT[Dap]TVQKLAHQIYQFTDKDKDNVAPRSKISPQGY-NH2; lactam 3-8), the EC50 in series [1] was 32 nM; in series [2], above 1000 nM.

Regarding `CCCCCCCCCCCCCCCC(=O)NCCCC[C@H](NC(=O)c1ccc2c(c1)C1(OC2=O)c2ccc(N(C)C)cc2Oc2cc(N(C)C)ccc21)C(=O)NCC(=O)N[C@H]1CNC(=O)CC[C@@H](C(=O)N[C@H](C(=O)N[C@H](C(=O)N[C@@H](CCC(N)=O)C(=O)N[C@@H](CCCCN)C(=O)N[C@@H](CC(C)C)C(=O)N[C@@H](C)C(=O)N[C@@H](Cc2c[nH]cn2)C(=O)N[C@@H](CCC(N)=O)C(=O)N[C@H](C(=O)N[C@@H](Cc2ccc(O)cc2)C(=O)N[C@@H](CCC(N)=O)C(=O)N[C@@H](Cc2ccccc2)C(=O)N[C@H](C(=O)N[C@@H](CC(=O)O)C(=O)N[C@@H](CCCCN)C(=O)N[C@@H](CC(=O)O)C(=O)N[C@@H](CCCCN)C(=O)N[C@@H](CC(=O)O)C(=O)N[C@@H](CC(N)=O)C(=O)N[C@H](C(=O)N[C@@H](C)C(=O)N2CCC[C@H]2C(=O)N[C@@H](CCCNC(=N)N)C(=O)N[C@@H](CO)C(=O)N[C@@H](CCCCN)C(=O)N[C@H](C(=O)N[C@@H](CO)C(=O)N2CCC[C@H]2C(=O)N[C@@H](CCC(N)=O)C(=O)NCC(=O)N[C@@H](Cc2ccc(O)cc2)C(N)=O)[C@@H](C)CC)C(C)C)[C@@H](C)O)[C@@H](C)CC)C(C)C)[C@@H](C)O)NC(=O)[C@H]([C@@H](C)O)NC(=O)CNC(=O)[C@H](Cc2ccccc2)NC(=O)[C@H](CCCNC(=N)N)NC1=O` [TAM-18, TAM[K^14(PAM), (Dpr^16, E^21)lac]ADM(14-52)] (X1-K(Palmitoyl)G[Dap]RFGTETVQKLAHQIYQFTDKDKDNVAPRSKISPQGY-NH2; lactam 3-8), the half-life at 0.0001 M in series [3] is above 96 h.

Consider `CCCCCCCCCCCCCCCC(=O)NCCCC[C@H](NC(=O)c1ccc2c(c1)C1(OC2=O)c2ccc(N(C)C)cc2Oc2cc(N(C)C)ccc21)C(=O)NCC(=O)N[C@H]1CNC(=O)CC[C@@H](C(=O)N[C@H](C(=O)N[C@H](C(=O)N[C@@H](CCC(N)=O)C(=O)N[C@@H](CCCCN)C(=O)N[C@@H](CC(C)C)C(=O)N[C@@H](C)C(=O)N[C@@H](Cc2c[nH]cn2)C(=O)N[C@@H](CCC(N)=O)C(=O)N[C@H](C(=O)N[C@@H](Cc2ccc(O)cc2)C(=O)N[C@@H](CCC(N)=O)C(=O)N[C@@H](Cc2ccccc2)C(=O)N[C@H](C(=O)N[C@@H](CC(=O)O)C(=O)N[C@@H](CCCCN)C(=O)N[C@@H](CC(=O)O)C(=O)N[C@@H](CCCCN)C(=O)N[C@@H](CC(=O)O)C(=O)N[C@@H](CC(N)=O)C(=O)N[C@H](C(=O)N[C@@H](C)C(=O)N2CCC[C@H]2C(=O)N[C@@H](CCCNC(=N)N)C(=O)N[C@@H](CO)C(=O)N(C)[C@@H](CCCCN)C(=O)N[C@H](C(=O)N[C@@H](CO)C(=O)N2CCC[C@H]2C(=O)N[C@@H](CCC(N)=O)C(=O)NCC(=O)N[C@@H](Cc2ccc(O)cc2)C(N)=O)[C@@H](C)CC)C(C)C)[C@@H](C)O)[C@@H](C)CC)C(C)C)[C@@H](C)O)NC(=O)[C@H]([C@@H](C)O)NC(=O)CNC(=O)[C@H](Cc2ccccc2)NC(=O)[C@H](CCCNC(=N)N)NC1=O` [TAM-27, TAM[K^14(PAM), (Dpr^16, E^21)lac, Nα-Me-K^46]ADM(14-52)] (X1-K(Palmitoyl)G[Dap]RFGTETVQKLAHQIYQFTDKDKDNVAPRS[NMeK]ISPQGY-NH2; lactam 3-8), for which the half-life at 0.0001 M in series [3] was above 96 h.
